Values quoted from earlier work as cited in US20150325856A1, “ENVIRONMENTALLY FRIENDLY INKJET-PRINTABLE LITHIUM BATTERY CATHODE FORMULATIONS, METHODS AND DEVICES” (NEW JERSEY INSTITUTE OF TECHNOLOGY, priority 2014, published 2015).
Where two headings read alike, the source gives them in different places.

Columns and labels:
[1] = system: rats and rabbits
[2] = system: rats, mice, guinea-pigs and rabbits
[3] = system: rabbits; conditions: Ansell and Fowler, as cited in WHO 2001
[4] = system: rabbits
[5] = system: rats; conditions: heads only
[6] = system: rats; conditions: whole body exposure

CN1CCCC1=O [NMP, N-methyl-pyrrolidone]
Tox. Cat. (dermal LD50) ([1]; dermal): (Tox. Cat. III-IV)
Dermal LD50 ([1]; rats and rabbits, Bartsch et al., as cited in WHO 2001, Wallen 1992): 4000-10,000 mg/kg
Tox. Cat. (oral LD50) ([2]; oral): (Tox. Cat. III-IV)
Oral LD50 ([2]; rats, mice, guinea-pigs and rabbits, Ansell and Fowler, 1988, as cited in WHO 2001): 3900 to 7900 mg/kg
Primary Skin Irritation [3]: Practically non-
Primary Eye Irritation, recovery [4]: recovered after 21 days post dosing
Primary Eye Irritation ([4]; causing corneal opacity, iritis and conjunctivitis, Ansell and Fowler, as cited in WHO 2001): Moderate (causing
Inhalation LC50 [5]: (5100 mg/m^3)
Inhalation LC50 ([5]; BASF, 1988, as cited in WHO 2001): >5.1 mg/L
Inhalation LC50 [6]: (1700 mg/m^3)
Inhalation LC50 ([6]; E. I. DuPont de Nemours & Co. 1977, as cited in WHO 2001): =1.7 mg/L
